In patent publication US20240424113A1, “CONJUGATES COMPRISING ANTIFUNGALS AND HEAT SHOCK PROTEIN 90 (HSP90) INHIBITORS AND METHODS OF USE THEREOF” (Bright Angel Therapeutics Inc., priority 2021, published 2024):
Converted amounts (≈) assume the structure as drawn.

Key:
CaCl2 = assay: Antifungal sensitivity testing (broth microdilution MIC); assay type: cell-based; settings: Table 4; 96-well broth microdilution
Method: Antifungal Sensitivity Testing. Minimum inhibitory concentrations (MICs) were determined in flat bottom, 96-well plate format using a modified broth microdilution protocol as previously described (Singh et al., PLoS Pathog. 5, e1000532 (2009); LaFayette et al., PLoS Pathog. 6, 79-80 (2010)). Compounds were formulated in dimethyl sulfoxide (DMSO, Sigma-Aldrich Co.); fluconazole was dissolved in sterile ddH2O. Each compound was tested in duplicate in at least two independent experiments. To test for fungicidal activity, cultures from MIC plates were spotted on YPD agar plates using a spotter (Frogger, V&P Scientific, Inc.). Plates were photographed after 24 h of incubation at 30° C.

[1] = target: Hsp90 Nuclear Binding Domain (NBD) (Candida albicans (strain SC5314 / ATCC MYA-2876) (Yeast), UniProt P46598); assay: Surface Plasmon Resonance (SPR) binding, C. albicans Hsp90 NBD; settings: biotinylated Hsp90 NBD on streptavidin chip, 25° C., 1:1 binding model
Chain of Hsp90 Nuclear Binding Domain (NBD) (Candida albicans (strain SC5314 / ATCC MYA-2876) (Yeast), UniProt P46598) (P46598 1-218 limits assumed): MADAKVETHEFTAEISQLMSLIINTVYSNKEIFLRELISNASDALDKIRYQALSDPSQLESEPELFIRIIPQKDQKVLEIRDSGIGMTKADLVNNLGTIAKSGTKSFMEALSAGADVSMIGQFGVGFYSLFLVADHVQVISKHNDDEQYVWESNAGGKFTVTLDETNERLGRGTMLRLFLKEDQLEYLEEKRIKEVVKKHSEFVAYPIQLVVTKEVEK
Method: (§1) Surface Plasmon Resonance (SPR) Experiments. SPR experiments were performed on a Biacore S200 instrument at 25° C. Biotinylated Hsp90 Nuclear Binding Domain (NBD) was diluted to 40 μg/mL and immobilized on a streptavidin chip (Sensor Chip SA, GE Healthcare) at a density of 2000-2500 response units (RU) on the biosensor surface.
(§2) Recombinant Hsp90 NBDs were expressed and purified as previously described (Whitesell et al., Nat Commun 10, 402 (2019)) with the following modification; Hsp90 NBD expression constructs were modified to encode a C-terminal AviTag for site-specific on-column biotinylation with a BirA biotin-ligase kit (Avidity LLC; BirA-500). Stock protein solutions in 50% glycerol were stored at −20° C. until dilution into relevant buffers. Binding experiments were done in HBS-P (0.01 M HEPES, pH 7.4, 0.15 M NaCl, 0.005% v/v surfactant P20, GE Healthcare) with 2% DMSO at flow rate of 40 μL/min. Test compounds (dilution series) were injected with a 60 s association time and 600 s dissociation time. Resulting sensorgrams were analyzed with a fit to a 1:1 binding model, using BIA evaluation software.

[2] = target: Hsp90 Nuclear Binding Domain (NBD) (Aspergillus fumigatus, UniProt P40292); assay: Surface Plasmon Resonance (SPR) binding, A. fumigatus Hsp90 NBD; settings: biotinylated Hsp90 NBD on streptavidin chip, 25° C., 1:1 binding model; NB undefined
Chain of Hsp90 Nuclear Binding Domain (NBD) (Aspergillus fumigatus, UniProt P40292) (P40292 whole entry, looked up, the tested form may be a part): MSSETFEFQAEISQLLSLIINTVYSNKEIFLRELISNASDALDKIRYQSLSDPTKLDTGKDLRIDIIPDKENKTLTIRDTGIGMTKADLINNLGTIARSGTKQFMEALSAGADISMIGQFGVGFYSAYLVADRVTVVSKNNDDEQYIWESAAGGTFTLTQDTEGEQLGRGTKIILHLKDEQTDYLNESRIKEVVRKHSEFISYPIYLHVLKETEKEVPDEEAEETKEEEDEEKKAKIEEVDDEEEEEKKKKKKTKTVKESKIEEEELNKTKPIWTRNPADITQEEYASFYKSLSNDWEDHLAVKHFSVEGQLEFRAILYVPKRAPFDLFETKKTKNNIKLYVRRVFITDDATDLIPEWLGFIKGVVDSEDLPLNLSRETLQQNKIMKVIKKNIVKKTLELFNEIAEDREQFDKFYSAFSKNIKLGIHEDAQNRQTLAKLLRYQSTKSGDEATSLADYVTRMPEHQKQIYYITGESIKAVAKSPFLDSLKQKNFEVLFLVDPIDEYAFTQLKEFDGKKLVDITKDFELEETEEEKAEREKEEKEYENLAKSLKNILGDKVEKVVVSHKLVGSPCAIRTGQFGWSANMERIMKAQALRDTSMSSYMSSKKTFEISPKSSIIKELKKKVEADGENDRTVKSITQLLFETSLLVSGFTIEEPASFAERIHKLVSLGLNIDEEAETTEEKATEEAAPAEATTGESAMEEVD
Method: as §1, §2

Row | SMILES | MIC50 (CaCl2) [µM] | Kd [1] [µM] | Kd [2] [µM]
1 | Nc1nc2sc(-c3nc(C(=O)NCC(O)(Cn4cncn4)c4ccc(F)cc4F)no3)cc2n(-c2ccc3c(c2)N(c2ccccc2)CCO3)c1=O (stereo not drawn) [Compound I-57, 5-(3-amino-2-oxo-1-(4-phenyl-3,4-dihydro-2H-benzo[b][1,4]oxazin-6-yl)-1,2-dihydrothieno[2,3-b]pyrazin-6-yl)-N-(2-(2,4-difluorophenyl)-2-hydroxy-3-(1H-1,2,4-triazol-1-yl)propyl)-1,2,4-oxadiazole-3-carboxamide] | 20 (≈ 14.5 µg/mL) | 0.0321 | 0.0469
2 | Nc1nc2sc(CNC(=O)C3CCN(CC(O)(Cn4cncn4)c4ccc(F)cc4F)CC3)cc2n(-c2ccc3c(c2)N(c2ccccc2)CCO3)c1=O (stereo not drawn) [Compound I-140, N-((3-amino-2-oxo-1-(4-phenyl-3,4-dihydro-2H-benzo[b][1,4]oxazin-6-yl)-1,2-dihydrothieno[2,3-b]pyrazin-6-yl)methyl)-1-(2-(2,4-difluorophenyl)-2-hydroxy-3-(1H-1,2,4-triazol-1-yl)propyl)piperidine-4-carboxamide] | 6.3 (≈ 4.75 µg/mL) | 0.746 | 0.434
3 | Nc1nc2sc(CN[C@@H]3CCCN(CC(O)(Cn4cncn4)c4ccc(F)cc4F)C3)cc2n(-c2ccc3c(c2)N(c2ccccc2)CCO3)c1=O (stereo partly drawn) [Compound I-75, 3-amino-6-((((3R)-1-(2-(2,4-difluorophenyl)-2-hydroxy-3-(1H-1,2,4-triazol-1-yl)propyl)piperidin-3-yl)amino)methyl)-1-(4-phenyl-3,4-dihydro-2H-benzo[b][1,4]oxazin-6-yl)thieno[2,3-b]pyrazin-2(1H)-one] | 4 (≈ 2.9 µg/mL) | 0.233 | 0.34
4 | Nc1nc2sc(CNC3CCN(CC(O)(Cn4cncn4)c4ccc(F)cc4F)C(=O)C3)cc2n(-c2ccc3c(c2)N(c2ccccc2)CCO3)c1=O (stereo not drawn) [Compound I-141, 3-amino-6-(((1-(2-(2,4-difluorophenyl)-2-hydroxy-3-(1H-1,2,4-triazol-1-yl)propyl)-2-oxopiperidin-4-yl)amino)methyl)-1-(4-phenyl-3,4-dihydro-2H-benzo[b][1,4]oxazin-6-yl)thieno[2,3-b]pyrazin-2(1H)-one] | 6.3 (≈ 4.66 µg/mL) | 0.342 | 0.62
5 | Nc1nc2sc(CN[C@H]3[C@@H]4CN(C[C@](O)(Cn5cncn5)c5ccc(F)cc5F)C[C@@H]43)cc2n(-c2ccc3c(c2)N(c2ccccc2)CCO3)c1=O [Compound I-125, 3-amino-6-((((1R,5S,6R)-3-((S)-2-(2,4-difluorophenyl)-2-hydroxy-3-(1H-1,2,4-triazol-1-yl)propyl)-3-azabicyclo[3.1.0]hexan-6-yl)amino)methyl)-1-(4-phenyl-3,4-dihydro-2H-benzo[b][1,4]oxazin-6-yl)thieno[2,3-b]pyrazin-2(1H)-one] | 5.75 (≈ 4.16 µg/mL) | 0.575 | 0.886
6 | Nc1nc2sc(CNCC(O)(Cn3cncn3)c3ccc(F)cc3F)cc2n(-c2ccc3c(c2)N(c2ccccc2)CCO3)c1=O (stereo not drawn) [Compound I-82, 3-amino-6-(((2-(2,4-difluorophenyl)-2-hydroxy-3-(1H-1,2,4-triazol-1-yl)propyl)amino)methyl)-1-(4-phenyl-3,4-dihydro-2H-benzo[b][1,4]oxazin-6-yl)thieno[2,3-b]pyrazin-2(1H)-one] | 1.6 (≈ 1.03 µg/mL) | 0.826 | 1.35
7 | Nc1nc2sc(C(=O)NC3CCN(CC(O)(Cn4cncn4)c4ccc(F)cc4F)CC3)cc2n(-c2ccc3ccn(-c4ccccc4)c3c2)c1=O (stereo not drawn) [Compound I-13, 3-amino-N-(1-(2-(2,4-difluorophenyl)-2-hydroxy-3-(1H-1,2,4-triazol-1-yl)propyl)piperidin-4-yl)-2-oxo-1-(1-phenyl-1H-indol-6-yl)-1,2-dihydrothieno[2,3-b]pyrazine-6-carboxamide] | 0.37 (≈ 0.267 µg/mL) | 0.0504 | 0.0751
8 | Nc1nc2sc(CNC3CCN(CC(O)(Cn4cncn4)c4ccccc4)CC3)cc2n(-c2ccc3c(c2)N(c2ccccc2)CCO3)c1=O (stereo not drawn) [Compound I-145, 3-amino-6-(((1-(2-hydroxy-2-phenyl-3-(1H-1,2,4-triazol-1-yl)propyl)piperidin-4-yl)amino)methyl)-1-(4-phenyl-3,4-dihydro-2H-benzo[b][1,4]oxazin-6-yl)thieno[2,3-b]pyrazin-2(1H)-one] | 12.5 (≈ 8.62 µg/mL) | 0.114 | 0.161
9 | Nc1nc2sc(C(=O)NC3CCN(C[C@](O)(Cn4cncn4)c4ccc(F)cc4F)CC3)cc2n(-c2ccc3c(c2)N(c2ccccc2)CCO3)c1=O [Compound I-7, (S)-3-amino-N-(1-(2-(2,4-difluorophenyl)-2-hydroxy-3-(1H-1,2,4-triazol-1-yl)propyl)piperidin-4-yl)-2-oxo-1-(4-phenyl-3,4-dihydro-2H-benzo[b][1,4]oxazin-6-yl)-1,2-dihydrothieno[2,3-b]pyrazine-6-carboxamide] | 0.75 (≈ 0.555 µg/mL) | 0.0228 | 0.0764
10 | Nc1nc2sc(C(=O)NC3CCN(CC(O)(Cn4cncn4)c4ccccn4)CC3)cc2n(-c2ccc3c(c2)N(c2ccccc2)CCO3)c1=O (stereo not drawn) [Compound I-142, 3-amino-N-(1-(2-hydroxy-2-(pyridin-2-yl)-3-(1H-1,2,4-triazol-1-yl)propyl)piperidin-4-yl)-2-oxo-1-(4-phenyl-3,4-dihydro-2H-benzo[b][1,4]oxazin-6-yl)-1,2-dihydrothieno[2,3-b]pyrazine-6-carboxamide] | 25 (≈ 17.6 µg/mL) | 0.0024 | 0.0341
11 | Nc1nc2sc(CN[C@@H]3CCN(CC(O)(Cn4cncn4)c4ccc(F)cc4F)C3)cc2n(-c2ccc3c(c2)N(c2ccccc2)CCO3)c1=O (stereo partly drawn) [Compound I-77, 3-amino-6-((((3R)-1-(2-(2,4-difluorophenyl)-2-hydroxy-3-(1H-1,2,4-triazol-1-yl)propyl)pyrrolidin-3-yl)amino)methyl)-1-(4-phenyl-3,4-dihydro-2H-benzo[b][1,4]oxazin-6-yl)thieno[2,3-b]pyrazin-2(1H)-one] | 12.5 (≈ 8.9 µg/mL) | 0.187 | 0.373
12 | Nc1nc2sc(CNC3CCN(CC(O)(Cn4cncn4)c4ccc(F)cc4F)CC3(F)F)cc2n(-c2ccc3c(c2)N(c2ccccc2)CCO3)c1=O (stereo not drawn) [Compound I-137, 3-amino-6-(((1-(2-(2,4-difluorophenyl)-2-hydroxy-3-(1H-1,2,4-triazol-1-yl)propyl)-3,3-difluoropiperidin-4-yl)amino)methyl)-1-(4-phenyl-3,4-dihydro-2H-benzo[b][1,4]oxazin-6-yl)thieno[2,3-b]pyrazin-2(1H)-one] | 0.78 (≈ 0.594 µg/mL) | 0.0541 | 0.127
13 | Nc1nc2sc(CNCCC(O)(Cn3cncn3)c3ccc(F)cc3F)cc2n(-c2ccc3c(c2)N(c2ccccc2)CCO3)c1=O (stereo not drawn) [Compound I-74, 3-amino-6-(((3-(2,4-difluorophenyl)-3-hydroxy-4-(1H-1,2,4-triazol-1-yl)butyl)amino)methyl)-1-(4-phenyl-3,4-dihydro-2H-benzo[b][1,4]oxazin-6-yl)thieno[2,3-b]pyrazin-2(1H)-one] | 12 (≈ 7.88 µg/mL) | 0.429 | 0.853
14 | Nc1nc2sc(C(=O)Nc3ccc(CN4CCN(CC(O)(Cn5cncn5)c5ccc(F)cc5F)CC4)cc3)cc2n(-c2ccc3c(c2)N(c2ccccc2)CCO3)c1=O (stereo not drawn) [Compound I-9, 3-amino-N-(4-((4-(2-(2,4-difluorophenyl)-2-hydroxy-3-(1H-1,2,4-triazol-1-yl)propyl)piperazin-1-yl)methyl)phenyl)-2-oxo-1-(4-phenyl-3,4-dihydro-2H-benzo[b][1,4]oxazin-6-yl)-1,2-dihydrothieno[2,3-b]pyrazine-6-carboxamide] | 10 (≈ 8.31 µg/mL) | 0.136 | 3.87
